Measured values: patent US11000033B2, “Ketone or oxime compound, and herbicide” (NISSAN CHEMICAL CORPORATION, priority 2014, dated 2021)

Legend:
Format in all cases: in vivo
soybean [1] = experiment: Test Example 4: effect on crop by soil treatment (symbol d); settings: 320 g/ha
Procedure, shortened: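 Plants are raised in a greenhouse (25° C. to 30° C.) from spot-sown seed, which sits under about 1.5 cm of sterilized diluvial soil in a box shared with weed species.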

Abutilon theophrasti [2] = experiment: Test Example 4: herbicidal effect by soil treatment (symbol M); settings: 320 g/ha
Procedure, shortened: (§1)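 Seeds were sown in sterilized diluvial soil, covered with about 1.5 cm of soil, and the soil surface was sprayed with a water-diluted emulsion of the compound at a predetermined rate. Plants grew in a greenhouse at 25° C. to 30° C.; effects were scored visually 3 weeks after application.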

transplanted rice plant = experiment: Test Example 1: effect on crop, application before weed generation in submerged conditions (symbol a); settings: application herbicide amount 320 g/ha
Procedure, shortened: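 Rice at 2.5 leaf stage transplanted into submerged soil (4 cm depth) sown with three weed species; herbicide applied before weed emergence.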

Apera spica-venti = experiment: Test Example 4: herbicidal effect by soil treatment (symbol L); settings: 320 g/ha
Procedure, shortened: as §1

soybean [3] = experiment: Test Example 5: effect on crop by foliage application, plastic box (symbol d); settings: 320 g/ha, 3 weeks after application
Procedure, shortened: (§2)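 Seeds were sown in spots in sterilized diluvial soil held in a plastic box 21 cm × 13 cm × 7 cm deep, covered with about 1.5 cm of soil, and grown in a greenhouse at 25° C. to 30° C.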

[4] = test system: Echinochloa oryzacola Vasing.; experiment: Test Example 1: herbicidal activity, application before weed generation in submerged conditions (symbol A); settings: application herbicide amount 320 g/ha
Procedure, shortened: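 Greenhouse growth at 25–30 °C lasted 3 weeks after treatment, when each weed was graded 0–5 by herbicidal ratio. Treatment was a diluted emulsion applied to the water surface of 4 cm-submerged alluvial soil on the sowing day.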

corn = experiment: Test Example 5: effect on crop by foliage application, plastic box (symbol c); settings: 320 g/ha, 3 weeks after application
Procedure, shortened: as §2

Digitaria ciliaris = experiment: Test Example 5: herbicidal effect by foliage application, plastic box (symbol F); settings: 320 g/ha, 3 weeks after application
Procedure, shortened: (§3)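 Post-emergence spray; diluvial soil (sterilized), ~1.5 cm seed cover; greenhouse 25–30° C; 14-day-old plants; water-diluted emulsion at predetermined dose; visual score at 3 wk post-treatment.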

Avena fatua = experiment: Test Example 5: herbicidal effect by foliage application, plastic box (symbol I); settings: 320 g/ha, 3 weeks after application
Procedure, shortened: as §3

[5] = test system: directly sowed rice plant; experiment: Test Example 3: effect on crop by foliage application, Wagner pot (symbol b); settings: application herbicide amount 320 g/ha
Procedure, shortened: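 Wagner pot (1/10000 are), alluvial soil, submerged 0.1–0.5 cm; sown E. crus-galli var. crus-galli, L. chinensis, C. difformis, rice; greenhouse 25–30 °C.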

Chenopodium album = experiment: Test Example 4: herbicidal effect by soil treatment (symbol O); settings: 320 g/ha
Procedure, shortened: as §1

[6] = test system: Echinochloa crus-galli var. crus-galli; experiment: Test Example 4: herbicidal effect by soil treatment (symbol H); settings: 320 g/ha
Procedure, shortened: as §1

Abutilon theophrasti [7] = experiment: Test Example 5: herbicidal effect by foliage application, plastic box (symbol M); settings: 320 g/ha, 3 weeks after application
Procedure, shortened: as §3

Veronica persica = experiment: Test Example 5: herbicidal effect by foliage application, plastic box (symbol R); settings: 320 g/ha, 3 weeks after application
Procedure, shortened: as §3

Galium spurium = experiment: Test Example 4: herbicidal effect by soil treatment (symbol Q); settings: 320 g/ha
Procedure, shortened: as §1

| Structure (SMILES) | d: soybean, effect grade on crop (soybean [1]) | M: Abutilon theophrasti, herbicidal effect grade (Abutilon theophrasti [2]) | Effect grade on crop, a: transplanted rice plant (transplanted rice plant) | L: Apera spica-venti, herbicidal effect grade (Apera spica-venti) | d: soybean, effect on crop (criteria 0-5) (soybean [3]) | Herbicidal effect grade, A: Echinochloa oryzacola Vasing. [4] | c: corn, effect on crop (criteria 0-5) (corn) | F: Digitaria ciliaris, herbicidal effect (criteria 0-5) (Digitaria ciliaris) | I: Avena fatua, herbicidal effect (criteria 0-5) (Avena fatua) | effect on crop b (directly sowed rice plant), grade 0-5 [5] | O: Chenopodium album, herbicidal effect grade (Chenopodium album) | H: Echinochloa crus-galli var. crus-galli, herbicidal effect grade [6] | M: Abutilon theophrasti, herbicidal effect (criteria 0-5) (Abutilon theophrasti [7]) | R: Veronica persica, herbicidal effect (criteria 0-5) (Veronica persica) | Q: Galium spurium, herbicidal effect grade (Galium spurium) |
| --- | --- | --- | --- | --- | --- | --- | --- | --- | --- | --- | --- | --- | --- | --- | --- |
| CCCON=C(C)CC1CC(O)=C(c2c(C)cc(C)cc2C)C1=O (stereo not drawn) [1-123] | 0 (Herbicidal ratio of 5% or lower (almost no effect)) | 3 (Herbicidal ratio of 40% or higher and lower than 70%) | 5 (Herbicidal ratio of 90% or more (almost completely withered)) | 5 (Herbicidal ratio of 90% or more (almost completely withered)) | 2 (Herbicidal ratio of 20% or higher and lower than 40%) | 5 (Herbicidal ratio of 90% or more (almost completely withered)) | 5 (Herbicidal ratio of 90% or more (almost completely withered)) | 5 (Herbicidal ratio of 90% or more (almost completely withered)) | 5 (Herbicidal ratio of 90% or more (almost completely withered)) | 5 (Herbicidal ratio of 90% or more (almost completely withered)) | 0 (Herbicidal ratio of 5% or lower (almost no effect)) | 5 (Herbicidal ratio of 90% or more (almost completely withered)) | 4 (Herbicidal ratio of 70% or higher and lower than 90%) | 4 (Herbicidal ratio of 70% or higher and lower than 90%) | 0 (Herbicidal ratio of 5% or lower (almost no effect)) |
| CC(CC1CC(O)=C(c2c(C)cc(C)cc2C)C1=O)=NOCC(N)=O (stereo not drawn) [1-124] | 0 (Herbicidal ratio of 5% or lower (almost no effect)) | 0 (Herbicidal ratio of 5% or lower (almost no effect)) | 0 (Herbicidal ratio of 5% or lower (almost no effect)) | 0 (Herbicidal ratio of 5% or lower (almost no effect)) | 0 (Herbicidal ratio of 5% or lower (almost no effect)) | 1 (Herbicidal ratio of 5% or higher and lower than 20%) | 4 (Herbicidal ratio of 70% or higher and lower than 90%) | 0 (Herbicidal ratio of 5% or lower (almost no effect)) | 2 (Herbicidal ratio of 20% or higher and lower than 40%) | 5 (Herbicidal ratio of 90% or more (almost completely withered)) | 0 (Herbicidal ratio of 5% or lower (almost no effect)) | 1 (Herbicidal ratio of 5% or higher and lower than 20%) | 0 (Herbicidal ratio of 5% or lower (almost no effect)) | 0 (Herbicidal ratio of 5% or lower (almost no effect)) | 0 (Herbicidal ratio of 5% or lower (almost no effect)) |
| CC(CC1CC(O)=C(c2c(C)cc(C)cc2C)C1=O)=NOCC[S+](C)[O-] (stereo not drawn) [1-125] | 0 (Herbicidal ratio of 5% or lower (almost no effect)) | 0 (Herbicidal ratio of 5% or lower (almost no effect)) | 5 (Herbicidal ratio of 90% or more (almost completely withered)) | 5 (Herbicidal ratio of 90% or more (almost completely withered)) | 0 (Herbicidal ratio of 5% or lower (almost no effect)) | 3 (Herbicidal ratio of 40% or higher and lower than 70%) | 3 (Herbicidal ratio of 40% or higher and lower than 70%) | 5 (Herbicidal ratio of 90% or more (almost completely withered)) | 5 (Herbicidal ratio of 90% or more (almost completely withered)) | 5 (Herbicidal ratio of 90% or more (almost completely withered)) | 0 (Herbicidal ratio of 5% or lower (almost no effect)) | 5 (Herbicidal ratio of 90% or more (almost completely withered)) | 0 (Herbicidal ratio of 5% or lower (almost no effect)) | 2 (Herbicidal ratio of 20% or higher and lower than 40%) | 0 (Herbicidal ratio of 5% or lower (almost no effect)) |
| CON=C(C)CC1CC(OC(=O)N(C)CCCCCl)=C(c2c(C)cc(C)cc2C)C1=O (stereo not drawn) [1-126] | 0 (Herbicidal ratio of 5% or lower (almost no effect)) | 0 (Herbicidal ratio of 5% or lower (almost no effect)) | 3 (Herbicidal ratio of 40% or higher and lower than 70%) | 0 (Herbicidal ratio of 5% or lower (almost no effect)) | 0 (Herbicidal ratio of 5% or lower (almost no effect)) | 4 (Herbicidal ratio of 70% or higher and lower than 90%) | 0 (Herbicidal ratio of 5% or lower (almost no effect)) | 3 (Herbicidal ratio of 40% or higher and lower than 70%) | 3 (Herbicidal ratio of 40% or higher and lower than 70%) | 5 (Herbicidal ratio of 90% or more (almost completely withered)) | 0 (Herbicidal ratio of 5% or lower (almost no effect)) | 0 (Herbicidal ratio of 5% or lower (almost no effect)) | 0 (Herbicidal ratio of 5% or lower (almost no effect)) | 0 (Herbicidal ratio of 5% or lower (almost no effect)) | 0 (Herbicidal ratio of 5% or lower (almost no effect)) |
| C=C(C)CN(CC)C(=O)OC1=C(c2c(C)cc(C)cc2C)C(=O)C(CC(C)=NOC)C1 (stereo not drawn) [1-130] | 0 (Herbicidal ratio of 5% or lower (almost no effect)) | 0 (Herbicidal ratio of 5% or lower (almost no effect)) | 3 (Herbicidal ratio of 40% or higher and lower than 70%) | 3 (Herbicidal ratio of 40% or higher and lower than 70%) | 1 (Herbicidal ratio of 5% or higher and lower than 20%) | 3 (Herbicidal ratio of 40% or higher and lower than 70%) | 1 (Herbicidal ratio of 5% or higher and lower than 20%) | 4 (Herbicidal ratio of 70% or higher and lower than 90%) | 5 (Herbicidal ratio of 90% or more (almost completely withered)) | 5 (Herbicidal ratio of 90% or more (almost completely withered)) | 0 (Herbicidal ratio of 5% or lower (almost no effect)) | 0 (Herbicidal ratio of 5% or lower (almost no effect)) | 0 (Herbicidal ratio of 5% or lower (almost no effect)) | 0 (Herbicidal ratio of 5% or lower (almost no effect)) | 0 (Herbicidal ratio of 5% or lower (almost no effect)) |
